According to US11634452B2, “Compounds for treating neurodegenerative disorders” (ETHNODYNE, priority 2017, dated 2023):
Where “and” joins values, the source holds several entries; their conditions need not be identical. Equal entries are not always repeated.

What was measured:
Assay type in all cases: cell-based
[1] = tested on: primary rat dopaminergic neurons (TH positive neurons) injured with 6-OHDA; assay: Neuroprotective effect following exposure to 6-OHDA, with or without pathway inhibitors; settings: 6-OHDA 20 μM, 48 h, no compound
Method: This study investigated the mode of action of CR777 on rat primary mesencephalic cultures following exposure to 6-OHDA. The effect of CR777 on level of GDNF and BDNF mRNA was investigated after 24 h 6-OHDA incubation and CR777. The main pathways of survival, regulation of the apoptosis and neuronal growth were investigated in presence of CR777 and inhibitors of these different pathways. The following pathways were investigated using antagonists of different proteins of interest: • RAS (small GTPase)/RAF (proto-oncogene Serine/threonine kinase); • Peroxisome proliferator-activated receptor gamma (PPAR-γ) (nuclear receptor) • The Pi3K/AKT/mTor (cell signaling pathway that plays a key role in cellular homeostasis through its role in regulation of apoptosis, cell growth, cell cycle). • NO (nitric oxide) pathway
Rat dopaminergic neurons were cultured as described in Example 4.
On day 6 of culture, the medium was removed and fresh medium was added, without or with 6-OHDA (Sigma, Batch: 083M4624V) at 20 μM diluted in control medium and let for 48 h. In parallel, all inhibitors were solved in culture medium and were added 2 h before the 6-OHDA application (namely 1 h before test compounds application).
CR777 was solved in DMSO at 10 mM, diluted in culture medium and then pre-incubated with mesencephalic neurons 1 hour before the 6-OHDA application (48 h). 6 wells per condition were assessed.
For survival and α-syn aggregation, compound was tested on 1 culture in a 96 well-plate (6 wells per condition), was pre-incubated 1 hour before 6-OHDA and let for 48 hours.
The following conditions were assessed: • Control (culture medium) • +6-OHDA (20 μM, 48 h) • +6-OHDA (20 μM, 48 h)+CR777 1 μM • +6-OHDA (20 μM, 48 h)+CR777 100 nM • +6-OHDA (20 μM, 48 h)+CR777 10 nM • +6-OHDA (20 μM, 48 h)+CR777 1 nM
For pathway investigation, the compound was tested on one primary dopaminergic culture in 96 well plates (6 wells per conditions).
Inhibitors were pre-incubated for 2 hours before 6-OHDA application and CR777 was pre-incubated 1 hour before 6-OHDA application.
The antagonists/inhibitors used in the experiments are the following: • FTS: farnesylthiosalicylic acid selectively disrupts the association of chronically active Ras proteins with the plasma membrane. • BEZ-235: dual PI3K/mTOR inhibitor. • T0070907: selective PPAR-γ antagonist • L-NAME (Nitro-L-arginine methyl ester): precursor to NOS inhibitor, L-NNA—requires bioactivation to become a fully functional inhibitor. • ABT-199: selective inhibitor of Bcl-2.
48 hours after intoxication, the cell culture supernatant was taken off and the dopaminergic neurons were fixed by a solution of 4% paraformaldehyde in PBS, pH=7.3 for 20 min at room temperature.
After permeabilization with 0.1% of saponin, cells were incubated for 2 hours with:
monoclonal Anti-Tyrosine Hydroxylase (TH) antibody produced in mouse at dilution of 1/10000 in PBS containing 1% FCS, 0.1% saponin,
polyclonal anti-α-syn antibody produced in rabbit at dilution of 1/200 for 2 h at room temperature.
For each condition, 20 pictures/well (representative of ˜the all well area) were automatically taken using ImageXpress (Molecular Devices) with 10× magnification. All images were taken with the same conditions. Analysis were automatically performed by using Custom Module Editor (Molecular Devices).
The following endpoint was investigated for each culture well: • The total dopaminergic neuron survival (TH staining), • The total area of α-syn on TH positive neuron (overlapping α-syn/TH)
After permeabilization with 0.1% of saponin, cells were incubated for 2 hours with monoclonal Anti-Tyrosine Hydroxylase (TH) antibody produced in mouse at dilution of 1/10000 in PBS containing 1% FCS, 0.1% saponin, for 2 h at room temperature.
The total dopaminergic neuron survival (TH staining) was investigated for each culture well.

[2] = tested on: primary rat motor neurons injured with glutamate; assay: Primary motor neuron culture survival after glutamate exposure (in vitro ALS model); settings: glutamate 5 μM for 20 min, no compound
Method: The aim of this study was to study the effect of CR777 on primary motor neuron culture from rat spinal cord (SC) injured by glutamate exposure (a well validated in vitro ALS model and model of motor neuron diseases).
Rat SC motor neurons were cultured as described by Martinou et al., Neuron. 1992 April; 8(4):737-44 and Wang et al., Hum Mol Genet. 2013 Dec. 1; 22(23):4706-19. Briefly, pregnant female rats (Wistar, Janvier labs) of 14 days gestation were killed by cervical dislocation. […] Cells were then centrifuged at 180 g for 10 min at +4° C. on a layer of BSA (3.5%) in L15 medium. […] The medium was changed every day.
The following conditions were assessed: • Control • + glutamate (5 μM 20 mn then 48 h) • + glutamate (5 μM 20 mn then 48 h)+CR777 1 pmol/L • + glutamate (5 μM 20 mn then 48 h)+CR777 10 pmol/L • + glutamate (5 μM 20 mn then 48 h)+CR777 100 pmol/L • + glutamate (5 μM 20 mn then 48 h)+CR777 1 nmol/L • + glutamate (5 μM 20 mn then 48 h)+CR777 10 nmol/L • + glutamate (5 μM 20 mn then 48 h)+CR777 100 nmol/L • + glutamate (5 μM 20 mn then 48 h)+CR777 1 μmol/L • + glutamate (5 μM 20 mn then 48 h)+CR777 10 μmol/L […]
For each condition, 6 wells were assessed, 30 pictures per well were taken using ImageXpress (Molecular Devices) with 20× magnification, to assess motor neuron survival (MAP-2). […]

[3] = tested on: primary rat cortical neurons injured with glutamate; assay: Effect in rat primary cortical neurons after glutamate injury; settings: glutamate 40 μM, 20 min, no compound
Method: A., et al., 1999. J Neurosci 19: 2455-2463 and Callizot.
The medium was changed every 2 days. The cortical neurons were intoxicated with glutamate solution.
The following conditions were assessed: • Control (culture medium) • + glutamate (40 μM, 20 min) • + glutamate (40 μM, 20 min)+CR777 (at each concentration)

[4] = tested on: primary rat dopaminergic neurons (TH positive neurons) injured with MPP+; assay: Neuroprotective effect following exposure to MPP+; settings: MPP+ 4 μM, 48 h, no compound
Method: This study investigated the neuroprotective effect of the Compound CR777 of example 1 on rat primary mesencephalic cultures following exposure to 1-methyl-4-phenyl pyridinium (MPP^+).
Rat dopaminergic neurons were cultured as described by Visanji et al., 2008 FASEB J. 2008; 22(7):2488-97. Briefly, the midbrains obtained from 15-day old rat embryos (Janvier Labs, France) were dissected under a microscope. The embryonic midbrains were removed and placed in ice-cold medium of Leibovitz (L15, Batch 4290114, Pan Biotech, Germany) containing 2% of Penicillin-Streptomycin (PS, Batch 1451013, Pan Biotech) and 1% of bovine serum albumin (BSA, Batch K030913, Pan Biotech). The ventral portion of the mesencephalic flexure, a region of the developing brain rich in dopaminergic neurons, was used for the cell preparations.
The midbrains were dissociated by trypsinisation for 20 min at 37° C. […] The cells were seeded in supplemented neurobasal medium at a density of 40 000 cells/well in 96 well-plates pre-coated with poly-L-lysine (Batch 3102256, Corning Biocoat) and maintained in a humidified incubator at 37° C. in 5% CO2/95% air atmosphere. Half of the medium was changed every 2 days with fresh medium.
On day 6 of culture, the medium was removed and fresh medium was added, without or with MPP+ at 4 μM diluted in control medium and let for 48 h. […]
The following conditions were assessed: (6 wells per condition) • Control (vehicle) • Compound CR777 of example 1 (1 pmol/L) • Compound CR777 of example 1 (10 pmol/L) • Compound CR777 of example 1 (100 pmol/L) • Compound CR777 of example 1 (1 nmol/L) • Compound CR777 of example 1 (10 nmol/L) • Compound CR777 of example 1 (100 nmol/L) • Compound CR777 of example 1 (1 μmol/L) • Compound CR777 of example 1 (10 μmol/L) […]
Data were expressed in percentage of control conditions (no injury, no compound=100%). All values were expressed as mean+/−SEM (standard error mean) of the 6 wells with statistical analyses on the different conditions (ANOVA followed by Dunnett's test when allowed, using GraphPad Prism software).

[5] = tested on: primary rat cortical neurons injured with Aβ1-42; assay: Neuroprotective effect on an in vitro model of Alzheimer disease; settings: Aβ1-42 20 μM, 24 h, no compound
Method: These peptides contribute to cerebrovascular lesions and are neurotoxic. This study investigated the neuroprotective effect of the plant extract of the invention on rat primary cortical cultures following exposure to Aβ1-42 in an in vitro AD model (Callizot. N., et al., 2013).
Rat cortical neurons were cultured as described in Example 6.
The cortical neurons were intoxicated with amyloid beta peptides solutions after 11 days of culture in presence of tested compound CR777.
Briefly, Aβ1-42 peptide (Batch: APN09080-1-1, Abcam, United Kingdom) was dissolved in the defined culture medium B27 mentioned above, devoid of serum, at an initial concentration of 40 μmol/L. This solution was gently agitated for 3 days at 37° C. in the dark and immediately used after being properly diluted in culture medium to the concentrations used (20 μM corresponding to 2 μM of AβO, measuring by WB, for survival, neurite network, tau phosphor and caspase 3 activation and 2.5 μM corresponding to 0.25 μM of AβO, for synapses evaluation).
CR777 was solved in DMSO at 10 mM and diluted in culture medium at different concentrations (see table below). The compound was tested on one primary cortical culture in 96 well plates (6 wells per conditions), and was pre-incubated 1 hour before Aβ1-42 application for 24 hours.
24 hours after intoxication, the cell culture supernatant was taken off and the cortical neurons were fixed by a cold solution of ethanol (95%) and acetic acid (5%) for 5 min at −20° C. • Plate 1: Immunostainning (MAP-2/Tau Phosphor)
After permeabilization with 0.1% of saponin, cells were incubated for 2 hours with a) a mouse monoclonal antibody anti phosphoT at dilution of 1/400 in PBS containing 1% fetal calf serum and 0.1% of saponin and b) a chicken polyclonal antibody anti microtubule-associated-protein 2 (MAP-2) at dilution of 1/1000 in PBS containing 1% fetal calf serum and 0.1% of saponin (this antibody stains specifically cell bodies and neurites, allowing study of neuronal cell survival and neurite network).
(§1) For each condition, 30 pictures/well (representative of ˜the all well area) were taken automatically using ImageXpress (Molecular Devices) with 20× magnification. All images were taken with the same conditions. Analysis were performed automatically by using Custom Module Editor (Molecular Devices).
The following endpoints were investigated per culture well: • The total neuron survival (MAP-2 staining), • The neurite network (MAP-2 staining) and • hyperphophorylation of T protein (pT) into neurons (pT/MAP-2). • Plate 2: Immunostainning (MAP-2/Caspase 3)
as §1, with “Devices). • The total number of caspase 3 positive neuron (overlapping caspase3/MAP-2) were investigated per culture well:” for “Devices).”
Data is expressed in percentage of control conditions (no injury, no compound=100%). All values are expressed as mean+/−SEM (standard error of the mean) from 6 wells per condition per culture. Neuro-Sys performed graphs and statistical analyses on the different conditions (ANOVA followed by Dunnett's test when allowed, using GraphPad Prism software version 5.0).

## NCCc1cc(O)c(O)cc1O [Compound 6-OHDA, reference compound]
[1]
  TH positive neuronal death induced by the toxin: ~30%
  loss of the neurite network induced by the toxin: ~35% and ~40%
  α-syn aggregation inside TH neuron cytoplasm induced by the toxin: large and significant α-syn aggregation

## N[C@@H](CCC(=O)O)C(=O)O [Glutamate, glutamate, reference compound]
[2]
  motor neuron death induced by glutamate: > 30%
[3]
  neurite network loss induced by glutamate: neurite network loss
  neuronal death induced by glutamate: significant neuronal death

## C[n+]1ccc(-c2ccccc2)cc1 [MPP+, 1-methyl-4-phenyl pyridinium, reference compound]
[4]
  TH positive neuron cell death induced by the toxin: > 35%

## Amyloid beta peptide 1-42 [Aβ, reference compound]
[5]
  caspase 3 activation induced by Aβ: activation of caspase 3
  hyperphosphorylation of tau induced by Aβ: increase of the hyperphosphorylation of tau
  neurite network loss induced by Aβ: ~40%
